Data set [1] in a line: antimigration efficacy of additional thiazole compounds (Table 3). It counts as cell-based. Particulars: cell line not given; read-out: IC50 (anti-migration). The source says: (§1) The additional thiazole compounds were synthesized and tested for antimigration efficacy and cytotoxicity, with results shown in TABLE 3.
The nature of data set [2]: cytotoxicity of additional thiazole compounds (Table 3). Type of data set: cell-based. Particulars: cell line not given.
From the text: as §1

Take `CCn1c(-c2ccc(C)cc2C)csc1=NC(=O)c1ccccc1` [Compound 5l, N-(4-(2,4-Dimethylphenyl)-3-ethylthiazol-2(3H)-ylidene)benzamide]: in data set [1], the IC50 amounted to 5560 nM. For the same compound, the “Cytotoxicity (Survival at 1 μM)” value in data set [2] was 141.8%. Regarding `CCCn1c(-c2ccc(C)cc2C)csc1=NC(=O)c1ccccc1` [Compound 5m, N-(4-(2,4-Dimethylphenyl)-3-propylthiazol-2(3H)-ylidene)benzamide], the IC50 in data set [1] was 176 nM. The “Cytotoxicity (Survival at 1 μM)” value in data set [2] is 85.0%. Regarding `CCCCn1c(-c2ccc(C)cc2C)csc1=NC(=O)c1ccccc1` [Compound 5n, N-(3-Butyl-4-(2,4-dimethylphenyl)thiazol-2(3H)-ylidene)benzamide], in data set [1], the IC50 is 333 nM. Also, in data set [2], the “Cytotoxicity (Survival at 1 μM)” value is reported as 70.4%. `CCCCCCn1c(-c2ccc(C)cc2C)csc1=NC(=O)c1ccccc1` [Compound 5o, N-(4-(2,4-Dimethylphenyl)-3-hexylthiazol-2(3H)-ylidene)benzamide]: in data set [1], the IC50 stood at 87 nM. The “Cytotoxicity (Survival at 1 μM)” value in data set [2] amounted to 90.0%. For `CCCCCCCCCCCCn1c(-c2ccc(C)cc2C)csc1=NC(=O)c1ccccc1` [Compound 5p, N-(4-(2,4-Dimethylphenyl)-3-dodecylthiazol-2(3H)-ylidene)benzamide], the IC50 in data set [1] is 32 nM. For the same compound, in data set [2], the “Cytotoxicity (Survival at 1 μM)” value was determined as 109.5%.

`C=CCn1c(-c2ccc(C)cc2C)csc1=NC(=O)c1ccccc1` [Compound 5q, N-(3-Allyl-4-(2,4-dimethylphenyl)thiazol-2(3H)-ylidene)benzamide]: the IC50 in data set [1] came out at 242 nM. For the same compound, the “Cytotoxicity (Survival at 1 μM)” value in data set [2] is 115.3%. On the same counts, the results for `C#CCn1c(-c2ccc(C)cc2C)csc1=NC(=O)c1ccccc1` [Compound 5r, N-(4-(2,4-Dimethylphenyl)-3-(prop-2-yn-1-yl)thiazol-2(3H)-ylidene)benzamide] are 11000 nM and 70.2%. Take `C#CCN(C(=O)c1ccccc1)c1nc(-c2ccc(C)cc2C)cs1` [Compound 6, N-(4-(2,4-Dimethylphenyl)thiazol-2-yl)-N-(prop-2-yn-1-yl)benzamide]: the “Cytotoxicity (Survival at 1 μM)” value in data set [2] is 106.4%. On to `CCN(C(=O)c1ccccc1)c1nc(-c2ccccc2)cs1` [Compound 7a, N-Ethyl-N-(4-phenylthiazol-2-yl)benzamide], for which, in data set [1], the IC50 was 565 nM. The “Cytotoxicity (Survival at 1 μM)” value in data set [2] was determined as 68.5%. Turning to `CCCn1c(-c2ccccc2)csc1=NC(=O)c1ccccc1` [Compound 7b, N-(4-Phenyl-3-propylthiazol-2(3H)-ylidene)benzamide], in data set [1], the IC50 amounted to 432 nM. Further, in data set [2], the “Cytotoxicity (Survival at 1 μM)” value stood at 100.0%. Regarding `C=CCn1c(-c2ccccc2)csc1=NC(=O)c1ccccc1` [Compound 7c, N-(3-Allyl-4-phenylthiazol-2(3H)-ylidene)benzamide], the IC50 in data set [1] is 24.3 nM. Besides, in data set [2], the “Cytotoxicity (Survival at 1 μM)” value was 64.8%.

With `C#CCn1c(-c2ccccc2)csc1=NC(=O)c1ccccc1` [Compound 7d, N-(4-Phenyl-3-(prop-2-yn-1-yl)thiazol-2(3H)-ylidene)benzamide], the IC50 in data set [1] was 64.7 nM. The “Cytotoxicity (Survival at 1 μM)” value in data set [2] was determined as 63.0%.

Take `CCn1c(-c2ccccc2)csc1=NC(=O)c1ccccc1` [Compound 8a, N-(4-phenyl-3-ethylthiazol-2(3H)-ylidene)benzamide]: the IC50 in data set [1] is 883 nM. Besides, the “Cytotoxicity (Survival at 1 μM)” value in data set [2] was determined as 128.9%. On the same counts, the results for `CCCN(C(=O)c1ccccc1)c1nc(-c2ccccc2)cs1` [Compound 8b, N-(4-Phenylthiazol-2-yl)-N-propylbenzamide] are 32.4 nM and 116.0%. On the same counts, the results for `Cc1ccc(-c2csc(NS(=O)(=O)c3ccccc3)n2)c(C)c1` [Compound 10, N-(4-(2,4-Dimethylphenyl)thiazol-2-yl)benzenesulfonamide] are 11000 nM and 137.4%.

Regarding `Cc1ccc(-c2csc(=NS(=O)(=O)c3ccccc3)n2C)c(C)c1` [Compound 11, N-(4-(2,4-Dimethylphenyl)-3-methylthiazol-2(3H)-ylidene)benzenesulfonamide], the IC50 in data set [1] was found to be 1460 nM. Also, in data set [2], the “Cytotoxicity (Survival at 1 μM)” value came out at 92.4%. As for `Cc1ccc(-c2csc(N(C)S(=O)(=O)c3ccccc3)n2)c(C)c1` [Compound 12, N-(4-(2,4-Dimethylphenyl)thiazol-2-yl)-N-methylbenzenesulfonamide], in data set [1], the IC50 was above 25000 nM. In data set [2], the “Cytotoxicity (Survival at 1 μM)” value came out at 116.7%. In the case of `Cc1csc(NC(=O)c2ccccc2)n1` [Compound 14a, N-(4-Methylthiazol-2-yl)benzamide], the IC50 in data set [1] turned out to be 12000 nM. Besides, the “Cytotoxicity (Survival at 1 μM)” value in data set [2] is 103.1%. As for `O=C(Nc1nc(-c2ccccc2Cl)cs1)c1ccccc1` [Compound 14b, N-(4-(2-Chlorophenyl)thiazol-2-yl)benzamide], the IC50 in data set [1] worked out at 15000 nM. Also, the “Cytotoxicity (Survival at 1 μM)” value in data set [2] is 102.4%. In the case of `O=C(Nc1nc(-c2cccc(Br)c2)cs1)c1ccccc1` [Compound 14c, N-(4-(3-Bromophenyl)thiazol-2-yl)benzamide], the IC50 in data set [1] was 10000 nM. For the same compound, the “Cytotoxicity (Survival at 1 μM)” value in data set [2] stood at 78.0%. The corresponding values for `O=C(Nc1nc(-c2ccc(Br)cc2)cs1)c1ccccc1` [Compound 14d, N-(4-(4-Bromophenyl)thiazol-2-yl)benzamide] are 9500 nM and 82.2%. On to `O=C(Nc1nc(-c2cccc(Cl)c2)cs1)c1ccccc1` [Compound 14e, N-(4-(3-Chlorophenyl)thiazol-2-yl)benzamide], for which the IC50 in data set [1] was found to be 123 nM. In addition, the “Cytotoxicity (Survival at 1 μM)” value in data set [2] was found to be 71.4%. On to `O=C(Nc1nc(-c2cc(C(F)(F)F)cc(C(F)(F)F)c2)cs1)c1ccccc1` [Compound 14f, N-(4-(3,5-Bis(trifluoromethyl)phenyl)thiazol-2-yl)benzamide], for which, in data set [1], the IC50 is 336 nM. Besides, the “Cytotoxicity (Survival at 1 μM)” value in data set [2] came out at 85.8%. The corresponding values for `COc1cc(-c2csc(NC(=O)c3ccccc3)n2)cc(OC)c1OC` [Compound 14g, N-(4-(3,4,5-Trimethoxyphenyl)thiazol-2-yl)benzamide] are above 50000 nM and 95.0%. For the compound `Cc1sc(NC(=O)c2ccccc2)nc1-c1ccccc1` [Compound 14h, N-(5-Methyl-4-phenylthiazol-2-yl)benzamide], the IC50 in data set [1] is above 25000 nM. Besides, the “Cytotoxicity (Survival at 1 μM)” value in data set [2] turned out to be 99.0%. The corresponding values for `Cc1sc(NC(=O)c2ccccc2)nc1-c1ccc(F)cc1` [Compound 14i, N-(4-(4-Fluorophenyl)-5-methylthiazol-2-yl)benzamide] are 9100 nM and 53.7%.

On to `Cc1ccc(-c2cnc(NC(=O)c3ccccc3)s2)cc1` [Compound 14j, N-(5-(p-Tolyl)thiazol-2-yl)benzamide], for which the IC50 in data set [1] was found to be 308 nM. Besides, the “Cytotoxicity (Survival at 1 μM)” value in data set [2] was 55.6%. The corresponding values for `COc1ccc(C(=O)Nc2nc(-c3cc(OC)c(OC)c(OC)c3)cs2)cc1` [Compound 14k, 4-Methoxy-N-(4-(3,4,5-trimethoxyphenyl)thiazol-2-yl)benzamide] are above 25000 nM and 93.8%. The corresponding values for `COc1cc(-c2csc(NC(=O)c3ccc(Cl)cc3)n2)cc(OC)c1OC` [Compound 14l, 4-Chloro-N-(4-(3,4,5-trimethoxyphenyl)thiazol-2-yl)benzamide] are above 25000 nM and 85.6%.

As to `COc1ccc(C(=O)Nc2nc(-c3cc(OC)c(OC)c(OC)c3)cs2)cc1OC` [Compound 14m, 3,4-Dimethoxy-N-(4-(3,4,5-trimethoxyphenyl)thiazol-2-yl)benzamide], the IC50 in data set [1] is above 25000 nM. Also, the “Cytotoxicity (Survival at 1 μM)” value in data set [2] came to 87.3%. `COc1ccc(C(=O)Nc2nc(-c3cc(OC)c(OC)c(OC)c3)cs2)c(OC)c1` [Compound 14n, 2,4-Dimethoxy-N-(4-(3,4,5-trimethoxyphenyl)thiazol-2-yl)benzamide]: the IC50 in data set [1] was above 50000 nM. Further, in data set [2], the “Cytotoxicity (Survival at 1 μM)” value is 93.8%. Consider `COc1cc(C(=O)Nc2nc(-c3cc(OC)c(OC)c(OC)c3)cs2)cc(OC)c1OC` [Compound 14o, 3,4,5-Trimethoxy-N-(4-(3,4,5-trimethoxyphenyl)thiazol-2-yl)benzamide], for which the IC50 in data set [1] came out at 1030 nM. The “Cytotoxicity (Survival at 1 μM)” value in data set [2] is on record as 77.6%. As to `COc1cc(-c2csc(NC(=O)c3cccc(OC)c3OC)n2)cc(OC)c1OC` [Compound 14p, 2,3-Dimethoxy-N-(4-(3,4,5-trimethoxyphenyl)thiazol-2-yl)benzamide], in data set [1], the IC50 stood at 15000 nM. Besides, the “Cytotoxicity (Survival at 1 μM)” value in data set [2] stood at 90.1%. The corresponding values for `COc1ccccc1C(=O)Nc1nc(-c2cc(OC)c(OC)c(OC)c2)cs1` [Compound 14q, 2-Methoxy-N-(4-(3,4,5-trimethoxyphenyl)thiazol-2-yl)benzamide] are 8500 nM and 103.7%. On the same counts, the results for `COc1cccc(C(=O)Nc2nc(-c3cc(OC)c(OC)c(OC)c3)cs2)c1` [Compound 14r, 3-Methoxy-N-(4-(3,4,5-trimethoxyphenyl)thiazol-2-yl)benzamide] are 14000 nM and 92.6%. Take `Cc1csc(=NC(=O)c2ccccc2)n1C` [Compound 15a, N-(3,4-Dimethylthiazol-2(3H)-ylidene)benzamide]: in data set [1], the IC50 came to 15000 nM. In data set [2], the “Cytotoxicity (Survival at 1 μM)” value is given as 102.6%. The corresponding values for `Cn1c(-c2ccccc2Cl)csc1=NC(=O)c1ccccc1` [Compound 15b, N-(4-(2-Chlorophenyl)-3-methylthiazol-2(3H)-ylidene)benzamide] are 268 nM and 72.2%. As for `Cn1c(-c2cccc(Br)c2)csc1=NC(=O)c1ccccc1` [Compound 15c, N-(4-(3-Bromophenyl)-3-methylthiazol-2(3H)-ylidene)benzamide], the IC50 in data set [1] worked out at 300 nM. For the same compound, the “Cytotoxicity (Survival at 1 μM)” value in data set [2] was determined as 94.4%. As to `Cn1c(-c2ccc(Br)cc2)csc1=NC(=O)c1ccccc1` [Compound 15d, N-(4-(4-Bromophenyl)-3-methylthiazol-2(3H)-ylidene)benzamide], the IC50 in data set [1] stood at 125 nM. Moreover, in data set [2], the “Cytotoxicity (Survival at 1 μM)” value is on record as 59.3%.

Values taken from patent US9650369B2, “Anti-migration and anti-invasion thiazole analogs for treatment of cellular proliferative disease” (XAVIER UNIVERSITY OF LOUISIANA, priority 2012, dated 2017).
